Columns and labels:
[1] = molecular target: T1, histidine décarboxylase de rein de cobaye (Cavia porcellus, UniProt H0WB71); test: Kidney histidine decarboxylase activity after in vivo administration (method of Kosmicki et al.); details: guinea pigs sacrificed 5 hours after administration, reduction versus controls, read-out: Activité exprimée en % d'inhibition de l'enzyme
T1 construct: le pourcentage de réduction de l'activité de l'enzyme du rein des animaux traités; from tissue; host or cells: guinea pig kidney
T1 sequence (H0WB71 1-642): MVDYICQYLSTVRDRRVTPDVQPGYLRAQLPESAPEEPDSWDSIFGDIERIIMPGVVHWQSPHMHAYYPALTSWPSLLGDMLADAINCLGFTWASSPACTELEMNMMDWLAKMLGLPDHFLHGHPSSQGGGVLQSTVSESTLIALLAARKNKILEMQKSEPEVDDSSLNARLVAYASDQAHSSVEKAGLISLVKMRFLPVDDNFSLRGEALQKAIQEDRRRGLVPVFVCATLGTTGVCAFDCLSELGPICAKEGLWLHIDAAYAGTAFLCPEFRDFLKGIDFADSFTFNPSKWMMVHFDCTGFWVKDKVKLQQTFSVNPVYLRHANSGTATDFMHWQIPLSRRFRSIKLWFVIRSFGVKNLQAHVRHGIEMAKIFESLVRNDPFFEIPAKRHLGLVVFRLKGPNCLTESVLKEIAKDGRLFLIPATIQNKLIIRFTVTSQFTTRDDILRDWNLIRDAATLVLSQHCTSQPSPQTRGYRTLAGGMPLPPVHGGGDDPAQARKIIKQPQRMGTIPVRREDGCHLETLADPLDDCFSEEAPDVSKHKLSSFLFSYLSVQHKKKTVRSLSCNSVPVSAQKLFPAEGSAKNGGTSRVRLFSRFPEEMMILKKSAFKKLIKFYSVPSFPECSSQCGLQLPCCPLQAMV
Excerpt: L'activité du composé 458L a été comparée à celle de la tritoqualine qui est à la connaissance des Demandeurs, le seul produit utilisé en thérapeutique pour cette propriété. La technique de mesure de l'activité de l'histidine décarboxylase de rein de cobaye a été décrite par B. Kosmicki et al (J. Pharmacol. Paris 1974 - 5 - 3 - 331 - 342). Les cobayes ont été sacrifiés cinq heures après l'administration des substances étudiées. Il a été déterminé par rapport aux témoins le pourcentage de réduction de l'activité de l'enzyme du rein des animaux traités. Les résultats obtenus sont rapportés dans le tableau ci-dessous : […]

[2] = set-up: species or system souris; details: in vivo
Excerpt: (§1) La toxicité a été déterminée de manière habituelle.

[3] = Acute toxicity (LD50), oral, mouse; details: in vivo, read-out: DL 50 (the source's name)
Excerpt: as §1

SMILES	inhibition at 10 mg/kg [1]	inhibition at 20 mg/kg [1]	inhibition at 40 mg/kg [1]	inhibition at 60 mg/kg [1]	toxicité chronique [2]	LD50 [3]
CCOc1c(N)c2c(c(OCC)c1OCC)C(C1c3c(cc4c(c3OC)OCO4)CCN1C)OC2=O (stereo not shown) [Tritoqualine, tritoqualine, reference compound]	10%	20%	20%	22%	–	–
CCOc1c(N)c2c(c(OCC)c1OCC)C(C1c3c(cc(OC)c(OC)c3OC)CCN1C)OC2=O (stereo not shown) [458 L]	14%	21%	31%	41%	bonne tolérance	~6000 mg/kg

Source: patent publication EP0028279A1, “Phthalide-isoquinoline derivatives, their preparation and their use in medicaments” (CALAIRE CHIMIE S.A., priority 1979, dated 1981)
